Reference: patent US20060194260A1, “Screening assays for cannabinoid-ligand-type modulators of gpr55” (priority 2003, published 2006)

Experiments:
[1] = target: T1, GPR55A (Homo sapiens, UniProt Q9Y2T6); assay: GTPγS binding assay on membranes of GPR55A-transfected HEK293s cells; assay type: biochemical; details: for EC50: NA = not active; for activation of GPR55A (GTPγS): concentration response
T1 construct: expressed in transfected cells; host or cells: HEK293s (transient, pIRESneo2 vector), membranes
T1 sequence (Q9Y2T6 whole entry): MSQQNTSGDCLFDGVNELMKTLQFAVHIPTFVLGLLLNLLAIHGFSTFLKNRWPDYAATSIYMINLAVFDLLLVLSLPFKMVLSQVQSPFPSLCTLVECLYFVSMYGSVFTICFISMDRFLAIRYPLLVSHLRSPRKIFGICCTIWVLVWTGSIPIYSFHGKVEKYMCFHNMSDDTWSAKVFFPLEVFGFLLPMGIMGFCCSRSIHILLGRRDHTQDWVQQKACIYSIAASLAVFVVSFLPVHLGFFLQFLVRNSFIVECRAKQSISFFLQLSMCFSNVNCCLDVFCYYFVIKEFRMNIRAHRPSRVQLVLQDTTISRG
Method: Membranes with or without 20 μM ligand were assayed for their stimulatory or inhibitory activity on GTPγS binding. As a negative control, cell membranes were prepared from empty vector-transfected cells, and as a positive control, cell membranes were prepared from CB1 transfected cells.
Receptor activity was determined using a GTPγS binding assay as follows: 10 μg of membranes diluted in 200 μl of 100 mM NaCl, 5 mM MgCl2, 1 mM EDTA, 50 mM HEPES (pH 7.4), 1 mM DTT, 0.1% BSA and 100 μM GDP. To this was added the required concentration of test compound and […] ^35S-GTPγS in the presence or absence of an EC80 concentration of agonist (HU210). […] Samples were then transferred on to GF/B filters using a cell harvester and washed with wash buffer (50 mM Tris (pH 7.4), 5 mM MgCl2, 50 mM NaCl). Filters were then covered with scintilant and counted for the amount of ^35S-GTPγS retained by the filter. To determine the level of non-specific binding control reactions were performed in the presence of 10 μM GTPγS.
Functional activity of ligands either in the presence or absence of agonists was determined as follows: Non-specific binding was subtracted from all values determined. The effect of compounds at various concentrations was plotted according to the equation y=A+((B−A)/1+((C/x)?ˆD))) and EC50 or IC50 estimated. Results
To further define the agonist activities of cannabinoid ligands EC50 determinations were made. […] Refer to FIGS. 5A-5D for the results. […] Table 1. Activity of ligands at GPR55A (Antagonist data were generated in the presence of an EC80 concentration of HU210.)

[2] = target: T2, GPR55 (Homo sapiens, UniProt Q9Y2T6); assay: Radioligand binding, membranes of GPR55-transfected HEK293S cells; details: for specific binding of radioligand: 1.6 nM radioligand
T2 construct: FLAG; expressed in transfected cells; host or cells: HEK293S (transient), membranes
T2 sequence (Q9Y2T6 whole entry L132S/R133G/S134P/R136G/K137R/I138S/F139L/I141S/C142A): as the sequence (Q9Y2T6 whole entry) above, with L132S, R133G, S134P, R136G, K137R, I138S, F139L, I141S, C142A counted along it
Method: (§1) To test whether GPR55 and/or GPR55Δ encoded a receptor that had the potential to perform as a cannabinoid receptor we transiently transfected cDNAs encoding FLAG-tagged forms of the receptors into HEK293S cells using lipofectamine. The cells were harvested 48 hours later and membranes prepared.
(§2) Membrane preparations were prepared by re-suspending receptor expressing cells in ice cold TE buffer (10 mM Tris-HCL 0.1 mM EDTA pH7.5) and leaving on ice for 5 minutes before pelleting the insoluble material by centrifugation at 1000 g. This process was repeated twice before re-suspending the pellet in an appropriate volume of TE and storing at −80° C.
(§3) Test compounds were added followed by 1.6 nM radioligand (3H—SR-141716A, ^3H-CP55940 or ^3H-WIN-55, 212-2) to an assay mixture containing membranes (10 μg protein) in 5.0 mM Tris, 5.0 mM MgCl2×6H2O (pH 7.4) supplemented with 0.05% BSA. The reaction was allowed to proceed at 30° C. for 90 min and then terminated by rapid filtration using GF/B filters (pre-soaked in 0.05% PEI) and washed with 50 mM Tris (pH 7.4), MgCl2×6H2O. Filters were then covered with scintillant and counted for the amount of radioligand retained. Non-specific binding was determined in the presence of 200 nM SR-141716A, CP55940 or WIN-55, 212-2.

[3] = target: T1, GPR55A; assay: Radioligand binding, membranes of GPR55A-transfected HEK293S cells; details: for specific binding of radioligand: 1.6 nM radioligand
Method: as §1, §2, §3

[4] = Radioligand binding, membranes of vector-transfected cells (negative control); details: vector-transfected cell membranes
Method: as §3

[5] = GTPγS binding, GPR55A membranes

| Structure (SMILES) | EC50 [1, 5] [nM] | activation of GPR55A (GTPγS) [1] | further results |
| --- | --- | --- | --- |
| CCCCC/C=C\C/C=C\C/C=C\C/C=C\CCCCOC(CO)CO [Noladin Ether] | 11.5 ± 0.5 | concentration-dependent activation | – |
| Cc1c(C(=O)NN2CCCCC2)nn(-c2ccc(Cl)cc2Cl)c1-c1ccc(Cl)cc1 [SR141716] | – | – | displacement of [^3H]-SR141716 (competition-binding curve) [2]: nanomolar affinity; displacement of [^3H]-SR141716 (competition-binding curve) [3]: nanomolar affinity; specific binding, [^3H]-SR141716 competition [4]: no specific binding |
| CCCCCCCC/C=C\CCCCCCCC(=O)NCCO [Oleylethanolamide] | 424 ± 203 | – | – |
| Cc1c(C(=O)c2cccc3ccccc23)c2cccc3c2n1C(CN1CCOCC1)CO3 (stereo not drawn) [[^3H]-WIN55-212] | – | – | specific binding of radioligand [2]: little or no binding; specific binding of radioligand [3]: little or no binding |
| CCCCCc1cc(O)c2c(c1)OC(C)(C)[C@@H]1CCC(C)=C[C@@H]21 [Δ9-THC, Δ9-tetrahydrocannbinol] | 8.9 ± 1.1 | concentration-dependent activation | – |
| CCCCC/C=C\C/C=C\C/C=C\C/C=C\CCCC(=O)OCCN [Virodhamine] | 10.4 ± 1.4 | – | – |
| CCCCCCC(C)(C)c1cc(O)c2c(c1)OC(C)(C)[C@@H]1CC=C(CO)C[C@@H]21 [Hu210] | 33 ± 12 | – | – |
| CCCCCCC(C)(C)c1ccc([C@@H]2C[C@H](O)CC[C@H]2CCCO)c(O)c1 [CP55940] | 7.1 ± 1.3 | – | concentration dependent activity after pertussis toxin or cholera toxin treatment ([1]; GPR55a in HEK293s membranes, treated with either toxin vs untreated): remains unaltered |
| CCCCCCCCCCCCCCCC(=O)NCCO [Palmitoylethanolamide] | 3.2 ± 1.3 | concentration-dependent activation | – |
| CCCCC/C=C\C/C=C\C/C=C\C/C=C\CCCC(=O)NCCO [Anandamide] | 18.4 ± 4.1 | concentration-dependent activation | – |
| CCCCCCC(C)(C)c1ccc([C@@H]2C[C@H](O)CC[C@H]2CCCO)c(O)c1 [[^3H]-CP55940] | – | – | specific binding of radioligand [2]: significant binding; specific binding of radioligand [3]: significant binding |
| C=C(C)[C@@H]1CCC(C)=C[C@H]1c1c(O)cc(O)cc1CCCCC [Abnormal cannabidiol] | 2780 ± 98 | – | – |
| CCCCC/C=C\C/C=C\C/C=C\C/C=C\CCCC(=O)OC(CO)CO [2-AG, 2-aracodonylglycerol] | 3.5 ± 2.4 | concentration-dependent activation | – |
| CCCn1c(C)c(C(=O)c2cccc3ccccc23)c2ccccc21 [JWH-015] | 4.75 ± 0.25 | – | – |
| C=C(C)[C@@H]1CCC(C)=C[C@H]1c1c(O)cc(CCCCC)cc1O [Cannabidiol] | – | – | IC50 ([1]; GTPγS binding, GPR55A membranes, antagonist data in the presence of an EC80 concentration of HU210, read-out: IC50 measurement): 354 ± 63 nM |
| Cc1c(C(=O)NN2CCCCC2)nn(-c2ccc(Cl)cc2Cl)c1-c1ccc(Cl)cc1 [[^3H]-SR141716] | – | – | specific binding of radioligand [2]: significant binding; specific binding of radioligand [3]: significant binding |
